{
  "source": "patent US20020002154A1",
  "about": "“METHOD AND COMPOSITION FOR TREATMENT OF INFLAMMATORY CONDITIONS” (priority 1998, published 2002)",
  "origin": "cited, not measured here",
  "test_system": "acute phase of Crohn's Disease (CD)",
  "data": [
    {"smiles": "CCCC1O[C@@H]2C[C@H]3[C@@H]4CCC5=CC(=O)C=C[C@]5(C)[C@H]4[C@@H](O)C[C@]3(C)[C@]2(C(=O)CO)O1", "note": "(stereo partly shown) [budesonide]", "values": [
      {"measurement": "side-effects compared to prednisone", "result": "fewer side-effects"}
    ]}
  ]
}
